Experimental data as given in the supplement of paper PMC10307832.

What was measured:
Assay in all cases: relative viability (nuclei count vs DMSO), 5 days (fraction); higher = more cells survive
Pictilisib + OSI-027 = compound: CS(=O)(=O)N1CCN(Cc2cc3nc(-c4cccc5[nH]ncc45)nc(N4CCOCC4)c3s2)CC1 [Pictilisib] + COc1cccc2cc(-c3nc([C@H]4CC[C@H](C(=O)O)CC4)n4ncnc(N)c34)[nH]c12 [OSI-027] (partner 0.5 µM)
Outline: (§1)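 Relative viability divides the nuclei count in treated wells by that in vehicle wells. Lung cancer cell lines were seeded in 1536-well plates, dosed by pin tool the next day, and fixed and stained after 5 days in one step with final 0.05% Triton X-100, 1% formaldehyde and 1 ug/ml Hoechst. Dosing was a single drug or a fixed anchor-drug dose plus five library-drug doses (not always all listed) in √10 steps, and values are medians of duplicate plates imaged at 4×.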

Pictilisib + Tozasertib = compound: CS(=O)(=O)N1CCN(Cc2cc3nc(-c4cccc5[nH]ncc45)nc(N4CCOCC4)c3s2)CC1 [Pictilisib] + Cc1cc(Nc2cc(N3CCN(C)CC3)nc(Sc3ccc(NC(=O)C4CC4)cc3)n2)n[nH]1 [Tozasertib] (partner 0.1 µM)
Outline: as §1

MK-2206 + Luminespib = compound: NC1(c2ccc(-c3nc4ccn5c(=O)[nH]nc5c4cc3-c3ccccc3)cc2)CCC1 [MK-2206] + CCNC(=O)c1noc(-c2cc(C(C)C)c(O)cc2O)c1-c1ccc(CN2CCOCC2)cc1 [Luminespib] (partner 0.01 µM)
Outline: as §1

MK-2206 + Crizotinib = compound: NC1(c2ccc(-c3nc4ccn5c(=O)[nH]nc5c4cc3-c3ccccc3)cc2)CCC1 [MK-2206] + C[C@@H](Oc1cc(-c2cnn(C3CCNCC3)c2)cnc1N)c1c(Cl)ccc(F)c1Cl [Crizotinib] (partner 1 µM)
Outline: as §1

MK-2206 + Vorinostat = compound: NC1(c2ccc(-c3nc4ccn5c(=O)[nH]nc5c4cc3-c3ccccc3)cc2)CCC1 [MK-2206] + O=C(CCCCCCC(=O)Nc1ccccc1)NO [Vorinostat] (partner 1 µM)
Outline: as §1

Cell Line | relative viability (Pictilisib + OSI-027; first compound 0.02 µM) | relative viability (Pictilisib + OSI-027; first compound 0.06325 µM) | relative viability (Pictilisib + OSI-027; first compound 0.6325 µM) | relative viability (Pictilisib + OSI-027; first compound 2 µM) | relative viability (Pictilisib + Tozasertib; first compound 0.02 µM) | relative viability (Pictilisib + Tozasertib; first compound 0.06325 µM) | relative viability (Pictilisib + Tozasertib; first compound 0.6325 µM) | relative viability (Pictilisib + Tozasertib; first compound 2 µM) | relative viability (MK-2206 + Luminespib; first compound 0.01 µM) | relative viability (MK-2206 + Luminespib; first compound 0.03162 µM) | relative viability (MK-2206 + Luminespib; first compound 0.3162 µM) | relative viability (MK-2206 + Luminespib; first compound 1 µM) | relative viability (MK-2206 + Crizotinib; first compound 0.01 µM) | relative viability (MK-2206 + Crizotinib; first compound 0.03162 µM) | relative viability (MK-2206 + Crizotinib; first compound 0.3162 µM) | relative viability (MK-2206 + Crizotinib; first compound 1 µM) | relative viability (MK-2206 + Vorinostat; first compound 0.01 µM) | relative viability (MK-2206 + Vorinostat; first compound 0.03162 µM) | relative viability (MK-2206 + Vorinostat; first compound 0.3162 µM) | relative viability (MK-2206 + Vorinostat; first compound 1 µM)
201T | 0.757 | 0.683 | 0.503 | 0.281 | 0.99 | 0.963 | 0.82 | 0.556 | 1.01 | 1.05 | 1.09 | 1.03 | 1.02 | 1.07 | 1.03 | 1.01 | 0.963 | 1.06 | 0.988 | 1.09
A549 |  |  |  |  |  |  |  |  |  |  |  |  | 0.733 | 0.744 | 0.641 | 0.535 |  |  |  | 
A-427 | 0.492 | 0.405 | 0.393 | 0.351 | 0.202 | 0.187 | 0.19 | 0.145 | 0.882 | 0.947 | 0.975 | 0.901 | 0.896 | 0.824 | 0.742 | 0.893 | 0.871 | 0.877 | 0.916 | 0.869
ABC-1 | 0.434 | 0.462 | 0.337 | 0.335 | 0.187 | 0.135 | 0.158 | 0.168 | 0.601 | 0.334 | 0.481 | 0.391 | 1.3 | 1.26 | 1.14 | 1.02 | 0.78 | 1.04 | 1.08 | 1.11
BEN | 0.309 | 0.293 | 0.286 | 0.273 | 0.377 | 0.425 | 0.448 | 0.409 | 0.404 | 0.484 | 0.274 | 0.495 | 0.906 | 0.956 | 0.913 | 0.908 | 0.54 | 0.582 | 0.514 | 0.555
CAL-12T | 0.8 | 0.642 | 0.339 | 0.167 | 0.296 | 0.314 | 0.277 | 0.17 | 0.362 | 0.515 | 0.457 | 0.477 | 0.546 | 0.688 | 0.488 | 0.491 | 0.672 | 0.8 | 0.748 | 0.768
COR-L23 | 0.767 | 0.809 | 0.732 | 0.372 | 0.245 | 0.185 | 0.139 | 0.136 | 0.713 | 0.695 | 0.581 | 0.529 | 0.69 | 0.691 | 0.796 | 0.693 | 0.462 | 0.52 | 0.426 | 0.408
COR-L 105 | 0.735 | 0.629 | 0.472 | 0.28 | 0.33 | 0.303 | 0.344 | 0.292 | 0.868 | 0.803 | 0.888 | 0.729 | 0.789 | 0.798 | 0.782 | 0.598 | 0.822 | 0.676 | 0.769 | 0.796
Calu-6 |  |  |  |  |  |  |  |  |  |  |  |  | 0.717 | 0.856 | 0.786 | 0.729 |  |  |  | 
ChaGo-K-1 | 0.586 | 0.626 | 0.411 | 0.314 | 0.227 | 0.21 | 0.161 | 0.17 | 0.668 | 0.661 | 0.541 | 0.679 | 1.08 | 1.11 | 0.961 | 1.14 | 0.754 | 0.856 | 0.763 | 0.702
EBC-1 |  |  |  |  |  |  |  |  |  |  |  |  | 0.189 | 0.205 | 0.198 | 0.172 |  |  |  | 
EKVX | 0.697 | 0.352 | 0.561 | 0.269 | 0.369 | 0.324 | 0.317 | 0.215 | 0.991 | 0.872 | 0.801 | 0.69 | 0.897 | 1.1 | 0.858 | 0.868 | 0.681 | 0.684 | 0.648 | 0.693
EMC-BAC-2 | 0.378 | 0.364 | 0.26 | 0.245 | 0.304 | 0.31 | 0.297 | 0.242 | 1.22 | 1.18 | 1.08 | 1.07 | 0.714 | 0.729 | 0.781 | 0.745 | 0.468 | 0.442 | 0.442 | 0.392
EPLC-272H | 0.296 | 0.284 | 0.242 | 0.18 | 0.26 | 0.231 | 0.206 | 0.179 | 0.585 | 0.263 | 0.338 | 0.323 | 0.951 | 0.928 |  | 1.01 | 0.513 | 0.401 | 0.482 | 0.435
H3255 | 0.58 | 0.578 | 0.389 | 0.309 | 0.601 | 0.474 | 0.648 | 0.486 | 0.872 | 1.12 | 0.754 | 0.835 | 0.833 | 0.913 | 0.729 | 0.616 | 0.779 | 0.803 | 0.724 | 0.617
HARA | 0.477 | 0.507 | 0.202 | 0.133 | 0.127 | 0.107 | 0.0682 | 0.0525 | 0.798 | 1.06 | 0.77 | 0.839 | 1.11 | 1.08 | 0.986 | 0.979 | 0.391 | 0.539 | 0.455 | 0.59
HCC-15 | 0.693 | 0.641 | 0.407 | 0.32 | 0.37 | 0.379 | 0.275 | 0.153 | 0.404 | 0.232 | 0.413 | 0.292 | 0.824 | 0.823 | 0.868 | 0.769 | 0.821 | 0.828 | 0.78 | 0.854
HCC-44 | 0.587 | 0.5 | 0.405 | 0.266 | 0.952 | 0.922 | 0.629 | 0.279 | 1.05 | 1.2 | 1.21 | 1.09 | 0.826 | 0.787 | 0.756 | 0.818 | 1.07 | 1.1 | 1.12 | 1.07
